The values below come from article PMC9078399, “Discovery of N-cyclobutylaminoethoxyisoxazole derivatives as novel sigma-1 receptor ligands with neurite outgrowth efficacy in cells” (RSC Advances, 2018).

“Also recorded” adds a separate entry of the source. Like-named read-outs stand apart in the source and are kept apart here.

For orientation: Ki means the equilibrium dissociation constant of an inhibitor or competing ligand from its target.

Assay [1] has as its target T1, σ1 receptor (Cavia porcellus, UniProt Q60492).
T1 construct: σ1 receptor, [^3H]-(+)-pentazocine, Guinea pig brain homogenate; from tissue; host or cells: Guinea pig brain homogenate
Description: Radioligand binding at σ1 receptor ([3H]-(+)-pentazocine, NIMH PDSP). Details: species or system Guinea pig. As to conditions: for Selectivity (Ki σ2/Ki σ1): ratio of Ki σ2 to Ki σ1. The text has this:
(§1) In this study, [^3H] pentazocine and [^3H]DTG (6) were used as the radioligands at σ1 and σ2 receptors. Firstly, we examined the effects of changing the substituents on the benzene ring. […] Mono-halogen substitution on the benzene ring exemplified by compounds 17–20 generally retained affinity for σ1 receptor compared with compound 7. […] The derivatives 21–25 also maintained similar high affinities for the σ1 receptor upon incorporation of two halogen atoms on the benzene ring. However, this is also accompanied with higher binding affinity to the σ2 receptor. […]. Next, we examined the effects of removing the methyl group on the basic nitrogen atom. […] […]. […] The results for the secondary amines 28 and 29 indicate that the hydrogen bond donor on basic nitrogen atom was beneficial for increased binding affinity to the σ1 receptor.
(§2) Radioligand competition studies were carried out by the National Institute of Mental Health's Psychoactive Drug Screening Program, Contract #HHSN-271-2008-00025-C (NIMH PDSP). The general procedures are listed as follows:
(§3) All the test compounds solution (1 mg mL^−1) were prepared by dissolving in DMSO or buffer solvent (50 mM Tris–HCl, pH = 8.0). The filter-mats were presoaked in 0.5% aqueous polyethyleneimine solution for 2 h at rt before use. All binding experiments were carried out in poly-L-lysine-coated 96-well plate and the final test concentration (50 μM, 5 μM, 1.5 μM, 500 nM, 150 nM, 50 nM, 15 nM, 5 nM, 1.5 nM, 0.5 nM, 0.05 nM) were prepared by addition of Tris–HCl solution (50 mM, pH = 8.0). The following specific radioligands and tissue source were used: (a) σ1 receptor, [^3H]-(+)-pentazocine, Guinea pig brain homogenate; (b) σ2 receptor, [^3H]-DTG, PC-12 cells. 100 μL of corresponding radioligand solution, 100 μL test compound solution and 50 μL of the respective receptor preparation into each well of the plate (total volume 250 μL). During the incubation, the plates were shaken at a speed of 500–600 rpm at the specified temperature (σ1 receptor, 37 °C, 150 min; σ2 receptor, rt, 120 min). The incubation was followed by a rapid vacuum filtration through Whatman GF/B glass filters, and the filtrates were washed twice with 10 mL of cold buffer and transferred to the 6 mL scintillation vials. EcoScint scintillation fluid (4.0 mL) was added, and the radioactivity bound was measured using a Beckman LS 6500 liquid scintillation counter. All experiments were performed at least three times.
(§4) For experimental details please refer to the PDSP website http://pdsp.med.unc.edu/.[28]

The test system of a further assay is PC12 cells. In words: NGF-induced neurite outgrowth in PC-12 cells. Format: cell-based, rat. As to conditions: 10 μM compound with NGF 2.5 ng mL−1, four days. As for the experimental part: PC-12 cells, from rat pheochromocytoma cell lines, were obtained from the American Type Culture Collection (ATCC, Manassas, VA, USA). Undifferentiated PC12 cells were cultured in DMEM complete medium with 10% heat-inactivated horse serum, 5% fetal bovine serum, 100 U mL^−1 penicillin, and 100 μg mL^−1 streptomycin and maintained at 37 °C in a humidified incubator supplemented with 5% CO2. To induce differentiation, PC12 cells were seeded at a density of 1 × 10^4 cells per mL on a poly-L-lysine-coated 96-well plate and cultured in complete medium containing 2.5 ng mL^−1 NGF or different tested compounds (10 μM) concomitant with 2.5 ng mL^−1 NGF administration. Four days after incubation, morphometric analysis was performed on digitized images of live cells taken under phase contrast illumination with an inverted microscope linked to a camera. Images of five fields per well were taken with an average of 20 cells per field. The number of differentiated cells was determined by counting cells that had at least one neurite with a length equal to the cell body diameter and was expressed as a percentage of the total cells in the field. The counting was performed in a blinded manner. All experiments were performed at least five times.

The target in assay [2] is T1, σ1 receptor. Details: method as in PMID 27309376. As to conditions: [3H]-(+)-pentazocine; Guinea pig homogenate; compound 7 value from the literature; cited from earlier work.
The target of assay [3] is T2, DAT: dopamine transporter (Homo sapiens, UniProt Q01959). On the set-up: method as in PMID 27309376. As to conditions: [3H] WIN35428; literature values; cited from earlier work.
T2 sequence (Q01959 whole entry): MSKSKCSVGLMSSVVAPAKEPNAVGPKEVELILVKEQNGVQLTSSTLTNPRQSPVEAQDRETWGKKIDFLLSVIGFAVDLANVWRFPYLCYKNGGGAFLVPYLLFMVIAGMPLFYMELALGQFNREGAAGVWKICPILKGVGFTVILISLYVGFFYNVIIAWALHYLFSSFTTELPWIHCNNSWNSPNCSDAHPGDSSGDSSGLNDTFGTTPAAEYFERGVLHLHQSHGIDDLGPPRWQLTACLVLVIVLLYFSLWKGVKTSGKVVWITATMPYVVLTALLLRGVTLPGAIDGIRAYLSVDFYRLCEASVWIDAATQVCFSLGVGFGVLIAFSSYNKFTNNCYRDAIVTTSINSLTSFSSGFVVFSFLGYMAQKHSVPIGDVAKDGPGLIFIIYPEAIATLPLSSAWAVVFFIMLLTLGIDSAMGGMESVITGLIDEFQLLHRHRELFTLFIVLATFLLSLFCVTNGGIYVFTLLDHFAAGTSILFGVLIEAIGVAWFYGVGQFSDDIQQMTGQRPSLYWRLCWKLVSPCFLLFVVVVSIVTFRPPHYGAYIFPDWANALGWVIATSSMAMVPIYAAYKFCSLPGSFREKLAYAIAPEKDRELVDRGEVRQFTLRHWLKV
The target of assay [4] is T3, NET: norepinephrine transporter (Homo sapiens, UniProt P23975). Details: method as in PMID 27309376. Particulars: [3H] nisoxetine; literature values; cited from earlier work.
T3 sequence (P23975 whole entry): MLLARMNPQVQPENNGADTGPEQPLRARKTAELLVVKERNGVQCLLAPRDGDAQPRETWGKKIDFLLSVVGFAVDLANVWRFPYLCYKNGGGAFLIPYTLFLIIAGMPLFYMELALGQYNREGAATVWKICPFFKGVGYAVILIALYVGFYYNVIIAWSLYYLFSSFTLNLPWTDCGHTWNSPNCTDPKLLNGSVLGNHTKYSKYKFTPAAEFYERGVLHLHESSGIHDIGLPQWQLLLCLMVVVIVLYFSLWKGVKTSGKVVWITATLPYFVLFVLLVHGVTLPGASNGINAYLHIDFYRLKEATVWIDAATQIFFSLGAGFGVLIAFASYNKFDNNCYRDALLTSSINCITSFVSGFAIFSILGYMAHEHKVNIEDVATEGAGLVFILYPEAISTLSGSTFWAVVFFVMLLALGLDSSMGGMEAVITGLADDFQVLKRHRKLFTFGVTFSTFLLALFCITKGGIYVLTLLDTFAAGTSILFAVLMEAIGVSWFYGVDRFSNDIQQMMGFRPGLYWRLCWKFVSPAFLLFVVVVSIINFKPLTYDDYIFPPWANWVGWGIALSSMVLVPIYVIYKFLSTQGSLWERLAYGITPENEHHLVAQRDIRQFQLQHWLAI
Assay [5] addresses SERT: serotonin transporter (Homo sapiens, UniProt P31645). On the set-up: method as in PMID 27309376. Particulars: [3H] citalopram; literature values; cited from earlier work.
Assay [6] addresses σ1 receptor. On the set-up: method as in PMID 21278085, PMID 15170821, PMID 18647636, PMID 22935988, PMID 21967807. Particulars: representative σ1 receptor ligands, Fig. 1; cited from earlier work.
The target in assay [7] is σ2 receptor. Details: method as in PMID 21278085, PMID 15170821, PMID 18647636, PMID 22935988, PMID 21967807. As to conditions: representative σ1 receptor ligands, Fig. 1; cited from earlier work.
The target in assay [8] is T4, σ2 receptor (Rattus norvegicus, UniProt Q5U3Y7).
T4 construct: (b) σ2 receptor, [^3H]-DTG, PC-12 cells; endogenous in cells; host or cells: PC-12 cells
T4 sequence (Q5U3Y7 1-176): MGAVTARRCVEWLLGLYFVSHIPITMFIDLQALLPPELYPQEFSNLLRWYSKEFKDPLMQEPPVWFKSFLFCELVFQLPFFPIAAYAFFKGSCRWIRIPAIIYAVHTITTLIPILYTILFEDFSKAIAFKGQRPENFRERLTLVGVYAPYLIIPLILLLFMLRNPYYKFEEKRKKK
Description: Radioligand binding at σ2 receptor ([3H]-DTG, NIMH PDSP). As to conditions: [3H] DTG; PC12 cells; mean ± SEM, three independent experiments.
From the text: as §1, §2, §3, §4

In the next assay the test system is N1E-115 neuronal cells. In words: Neurite outgrowth in N1E-115 cells. In kind it is cell-based, mouse. Particulars: 10 μM in DMSO, four days, vs. vehicle (DMSO). As for the experimental part: Following the radioligand binding studies and CNS MPO calculations, all of the synthesized derivatives were further tested in cellular neuritogenesis studies. In this study, N1E-115 neuronal cells were used as a screening platform for assessing the neuritogenesis effects of candidate compounds.[31,32] All the derivatives and positive control (compound 7 and RC-33) were assessed at 10 μM concentration in DMSO, and vehicle group using DMSO alone.
N1E-115 cells, the mouse neuroblastoma cell lines, were obtained from the American Type Culture Collection (ATCC, Manassas, VA, USA). Undifferentiated N1E115 cells were cultured in DMEM complete medium with 10% fetal bovine serum, 100 U mL^−1 of penicillin, and 100 μg mL^−1 of streptomycin and maintained at 37 °C in a humidified incubator supplemented with 5% CO2. N1E-115 cells were seeded at a density of 1 × 10^4 cells per mL on poly-L-lysine-coated 96-well plates and grown with DMSO or different tested compounds (10 μM) in DMSO solution for four days. Four days after incubation, morphometric analysis was performed on digitized images of live cells taken under phase contrast illumination with an inverted microscope linked to a camera. Images of five fields per well were taken with an average of 100 cells per field. Cells that had at least one neurite with a length that was twice as long as the body diameter were expressed as a percentage of the total cells in the field. The counting was performed in a blinded manner. All experiments were performed at least five times.

For assay [9], the target named is T2, DAT: dopamine transporter. In words: Radioligand binding at DAT ([3H] WIN35428). As for the experimental part:
(§5) In order to exclude the potential interference of other receptor pathways to the observed neuritogenesis efficacy, we assessed the binding affinities of compounds 7, 18, 22, 24, 25, 28 and 29 at the biogenic amine transporters (NET, DAT, and SERT).
as §2, §4

For assay [10], the target named is T3, NET: norepinephrine transporter. In words: Radioligand binding at NET ([3H] nisoxetine). The procedure:
as §5, §2, §4

T1 sequence (Q60492 whole entry): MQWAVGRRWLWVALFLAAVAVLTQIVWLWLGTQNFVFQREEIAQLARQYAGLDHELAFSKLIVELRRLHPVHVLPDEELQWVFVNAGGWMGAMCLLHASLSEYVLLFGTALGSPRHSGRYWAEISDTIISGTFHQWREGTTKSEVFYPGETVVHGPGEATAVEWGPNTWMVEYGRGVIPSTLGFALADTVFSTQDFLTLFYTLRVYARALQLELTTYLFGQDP
Sequence of SERT: serotonin transporter (P31645 whole entry): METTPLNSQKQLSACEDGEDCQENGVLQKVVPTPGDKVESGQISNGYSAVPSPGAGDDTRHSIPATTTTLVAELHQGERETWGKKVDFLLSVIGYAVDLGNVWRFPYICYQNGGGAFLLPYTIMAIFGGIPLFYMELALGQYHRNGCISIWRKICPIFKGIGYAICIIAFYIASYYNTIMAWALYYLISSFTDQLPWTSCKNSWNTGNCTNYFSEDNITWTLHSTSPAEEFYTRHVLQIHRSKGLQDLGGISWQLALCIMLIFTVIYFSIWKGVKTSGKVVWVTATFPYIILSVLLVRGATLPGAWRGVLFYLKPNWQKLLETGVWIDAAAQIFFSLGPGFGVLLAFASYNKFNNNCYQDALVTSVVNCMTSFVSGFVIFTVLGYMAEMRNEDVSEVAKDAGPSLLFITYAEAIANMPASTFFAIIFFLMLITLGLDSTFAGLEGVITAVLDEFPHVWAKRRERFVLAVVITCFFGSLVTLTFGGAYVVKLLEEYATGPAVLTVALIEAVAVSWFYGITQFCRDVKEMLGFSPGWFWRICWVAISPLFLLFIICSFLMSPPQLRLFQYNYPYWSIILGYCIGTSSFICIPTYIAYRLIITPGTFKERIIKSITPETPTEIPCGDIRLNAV

With `CN(CCOc1cc(COc2ccccc2)on1)C1CCC1` [Compound 7], the “Selectivity (Ki σ2/Ki σ1)” value at σ1 receptor [1] was found to be 171. Also, the “Effect on NGF-induced neurite outgrowth” value with PC12 cells is listed as “synergistic neurite outgrowth effects at a level similar to that of the positive control RC-33”. The Ki on σ1 receptor [2] was 1.8 ± 0.2 nM. In addition, the “Ki, DAT” value in assay [3] was “NA ^c (NA: not active, defined as <50% binding in the primary assay at 10 μM)”. For the same compound, in assay [4], the “Ki, NET” value is “NA (NA: not active, defined as <50% binding in the primary assay at 10 μM)”. Also, in [5], the “Ki, SERT” value is given as “NA (NA: not active, defined as <50% binding in the primary assay at 10 μM)”.
As for `C[C@H](CCN1CCCCC1)c1ccc(-c2ccccc2)cc1` [(R)-RC-33], on σ1 receptor [6], the Ki was 1.8 nM.
Consider `CC(CCN1CCCCC1)c1ccc(-c2ccccc2)cc1` (centres unmarked) [RC-33], for which the Ki at σ1 receptor [6] is 0.7 nM; on σ2 receptor [7], 103 nM.
For the compound `COc1ccc(CCN2CCN(CCCc3ccccc3)CC2)cc1OC` [SA4503], the Ki is 17 nM on σ1 receptor [6] and 1800 nM at σ2 receptor [7].
Take `CCCN(CCC)CCc1ccc(OC)c(OCCc2ccccc2)c1` [NE-100]: the Ki on σ1 receptor [6] was 1.03 nM; on σ2 receptor [7], 212 nM.
Consider `O=C(OCCN1CCOCC1)C1(c2ccccc2)CCCCC1` [PRE-084], for which, at σ2 receptor [7], the Ki was more than 10000 nM.
With `CN(CCOc1cc(COc2cc(F)cc(F)c2)on1)C1CCC1.Cl` [Compound 22, N-(2-((5-((3,5-Difluorophenoxy)methyl)isoxazol-3-yl)oxy)ethyl)-N-methylcyclobutanamine hydrochloride], the Ki was 2.4 ± 1.2 nM at σ1 receptor [1] ([3H]-(+)-pentazocine, Guinea pig brain homogenate, mean ± SEM, three independent experiments); 57 ± 20.1 nM on σ2 receptor [8]; more than 10000 nM in assay [9]; 2880 nM in assay [10]. In addition, the “Selectivity (Ki σ2/Ki σ1)” value at σ1 receptor [1] is given as 24. Also, the “Neurite outgrowth (neuritogenesis) effect” value in the assay with N1E-115 neuronal cells is “preferable neurite outgrowth effects compared to the parent compound 7 and positive control RC-33; also recorded: significant neuritogenesis effects”.
